# Measured values: patent US7157487B2, “Vla-4 inhibitors” (Daiichi Pharmaceutical Co., Ltd., priority 2000, dated 2007)
# Biological target: T1, integrins haα4 and β1 (VLA-4) expressed on CHO cells (Homo sapiens, UniProt P05556+P13612)
# T1 construct: expressed in transfected cells; host or cells: CHO cells
# Assay: In vitro Evaluation Test (1): binding of Eu3+-hVCAM-1 D1D7-IgG to CHO cells expressing integrins α4 and β1
# Conditions: inhibition of Eu3+-hVCAM-1 D1D7-IgG binding to CHO cells expressing α4β1; Ki calculated from IC50
# Method: CHO cells forcedly expressed by the transduction of integrins haα4 and β1 were seeded in a Coster 3599 plate (3×10^4 cells/100 μl/well) and they were cultured for 2 days. After the medium was washed with buffer A* twice, 50 μl/well of Eu^3+-hVCAM-1 D1D7-IgG diluted to […] with an assay buffer ** was added. To the resulting well was added 50 μl/well of a test compound diluted with 2% DMS0-assay buffer (in the presence or absence of 6% human serum albumin) (to a well subjected to Scatchard analysis was added a solution diluted in another manner). After stirring for 5 minutes on a plate mixer, the plate was allowed to stand at room temperature for 1 hour. Then, the plate was washed four times with the buffer A and added with 100 μl/well of an enhancement reagent (DELFIA). The plate was shaken for 5 minutes on a plate mixer, followed by measurement of fluorescence intensity by a time-resolved fluorometer (DELFIA Wallac). From the binding ratio available by the following calculation formula: ((FT−FNS)−(FI−FNS))/(FT−FNS)×100, the IC50 (concentration inhibiting 50% of binding of CHO cells with hVCAM-1 D1D7-IgG) of the test compound was determined. In the above formula, FT means the fluorescence intensity of the well free of the test compound, FNS means the fluorescence intensity of the well free of the test compound and anti-hα4 antibody (SG/73), and FI means the fluorescence intensity of the well containing the test compound. The Kd indicating the binding strength and Bmax (maximum binding) were estimated within a range of 0.06 to 20 nM in accordance with the Scatchard analysis method.
# The value Ki was calculated based on:
# [formula] ((L) means a ligand concentration). (* buffer A: 25 mM HEPES (pH 7.5), 150 mM NaCl, 1 mM Ca^2+, 1 MM Mg^2+, 4 mM Mn^2+; ** assay buffer: 25 mM HEPES (pH 7.5), 150 mM NaCl, 1 mM Ca^2+, 1 mM Mg^2+, 4 mM Mn^2+, 0.1% BSA, 20 μM DTPA, with/without 6% ALBUMIN, HUMAN SERUM (C/N A-1653, SIGMA)) In vitro Evaluation Test (2)
# T1 sequence (P13612 34-1032): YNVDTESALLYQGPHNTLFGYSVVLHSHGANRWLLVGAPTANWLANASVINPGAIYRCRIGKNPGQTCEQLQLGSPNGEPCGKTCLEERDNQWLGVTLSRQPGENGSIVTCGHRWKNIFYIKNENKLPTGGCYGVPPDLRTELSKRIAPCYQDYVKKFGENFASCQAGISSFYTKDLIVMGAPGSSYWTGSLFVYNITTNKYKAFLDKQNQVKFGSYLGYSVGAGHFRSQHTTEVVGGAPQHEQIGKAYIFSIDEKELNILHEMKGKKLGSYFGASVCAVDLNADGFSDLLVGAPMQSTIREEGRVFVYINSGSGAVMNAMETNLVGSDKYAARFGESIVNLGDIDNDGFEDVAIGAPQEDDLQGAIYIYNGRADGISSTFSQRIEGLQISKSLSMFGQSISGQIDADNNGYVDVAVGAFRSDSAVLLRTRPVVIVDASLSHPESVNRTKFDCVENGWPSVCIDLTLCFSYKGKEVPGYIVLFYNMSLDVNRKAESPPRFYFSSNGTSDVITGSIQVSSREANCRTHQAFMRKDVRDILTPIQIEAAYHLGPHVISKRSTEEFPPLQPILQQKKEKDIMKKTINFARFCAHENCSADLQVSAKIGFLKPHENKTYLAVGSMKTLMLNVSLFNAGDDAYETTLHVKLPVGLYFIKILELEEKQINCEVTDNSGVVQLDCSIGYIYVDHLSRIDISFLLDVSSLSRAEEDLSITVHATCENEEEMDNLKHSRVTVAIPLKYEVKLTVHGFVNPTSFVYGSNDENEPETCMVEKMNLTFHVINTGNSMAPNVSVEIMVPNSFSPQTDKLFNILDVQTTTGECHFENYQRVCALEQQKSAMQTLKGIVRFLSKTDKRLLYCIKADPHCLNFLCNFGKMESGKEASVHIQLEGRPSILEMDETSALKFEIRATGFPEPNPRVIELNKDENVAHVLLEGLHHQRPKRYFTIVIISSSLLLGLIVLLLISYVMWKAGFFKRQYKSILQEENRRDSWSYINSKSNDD
# T1 sequence (P05556 21-798): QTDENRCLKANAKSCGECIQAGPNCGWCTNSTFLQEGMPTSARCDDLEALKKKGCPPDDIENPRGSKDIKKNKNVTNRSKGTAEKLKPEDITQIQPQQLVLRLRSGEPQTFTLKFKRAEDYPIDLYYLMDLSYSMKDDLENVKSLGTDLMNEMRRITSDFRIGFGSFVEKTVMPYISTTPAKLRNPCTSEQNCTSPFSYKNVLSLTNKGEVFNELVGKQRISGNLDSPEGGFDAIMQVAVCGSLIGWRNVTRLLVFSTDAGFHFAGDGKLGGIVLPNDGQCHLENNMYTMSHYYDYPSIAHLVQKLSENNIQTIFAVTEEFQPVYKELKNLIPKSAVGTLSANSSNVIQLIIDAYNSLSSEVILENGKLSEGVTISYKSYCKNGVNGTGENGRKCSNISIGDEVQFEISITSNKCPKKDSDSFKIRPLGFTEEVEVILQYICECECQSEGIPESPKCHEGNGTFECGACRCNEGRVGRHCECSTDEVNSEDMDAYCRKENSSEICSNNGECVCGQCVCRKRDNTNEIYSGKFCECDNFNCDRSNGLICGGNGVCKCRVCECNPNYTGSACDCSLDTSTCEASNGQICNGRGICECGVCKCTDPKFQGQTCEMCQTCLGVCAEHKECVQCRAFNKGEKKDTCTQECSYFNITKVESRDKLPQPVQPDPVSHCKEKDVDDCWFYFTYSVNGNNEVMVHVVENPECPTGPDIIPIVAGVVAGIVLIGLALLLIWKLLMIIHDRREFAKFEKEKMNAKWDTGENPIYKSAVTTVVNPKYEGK
row,Structure (SMILES),Ki
1,"O=C(Cc1ccc(Nc2nc3cccc(F)c3o2)c(Cl)c1)N1C[C@@H](F)C[C@H]1CO[C@H]1CC[C@H](C(=O)O)CC1 [Example 53, trans-4-(1-(3-Chloro-4-(2-(7-fluorobenzoxazolyl))aminophenylacetyl)-(4S)-fluoro-(2S)-pyrrolidinylmethoxy)cyclohexanecarboxylic acid]",32 nM
2,"O=C(Cc1ccc(Nc2nc3cc(F)ccc3o2)c(Cl)c1)N1C[C@@H](F)C[C@H]1CO[C@H]1CC[C@H](C(=O)O)CC1 [Example 54, trans-4-(1-(3-Chloro-4-(2-(5-fluorobenzoxazolyl))aminophenylacetyl)-(4S)-fluoro-(2S)-pyrrolidinylmethoxy)cyclohexanecarboxylic acid]",5.6 nM
3,"O=C(Cc1ccc(Nc2nc3ccccc3s2)c(Cl)c1)N1C[C@@H](F)C[C@H]1CO[C@H]1CC[C@H](C(=O)O)CC1 [Example 56, trans-4-(1-(4-(2-Benzothiazolyl)amino-3-chlorophenylacetyl)-(4S)-fluoro-(2S)-pyrrolidinylmethoxy)cyclohexanecarboxylic acid]",2.1 nM
4,"O=C(Cc1ccc(Nc2nc3ccc(F)cc3s2)c(Cl)c1)N1C[C@@H](F)C[C@H]1CO[C@H]1CC[C@H](C(=O)O)CC1 [Example 57, trans-4-(1-(3-Chloro-4-(6-fluoro-2-benzothiazolyl)aminophenylacetyl)-(4S)-fluoro-(2S)-pyrrolidinylmethoxy)cyclohexanecarboxylic acid]",7.3 nM
5,"O=C(Cc1ccc(Nc2nc3ccc(Cl)cc3s2)c(Cl)c1)N1C[C@@H](F)C[C@H]1CO[C@H]1CC[C@H](C(=O)O)CC1 [Example 59, trans-4-(1-(4-(6-Chloro-2-benzothiazolyl)amino-3-chlorophenylacetyl)-(4S)-fluoro-(2S)-pyrrolidinylmethoxy)cyclohexanecarboxylic acid]",7.2 nM
6,"O=C(Cc1ccc(Nc2nc3c(Cl)cccc3s2)c(Cl)c1)N1C[C@@H](F)C[C@H]1CO[C@H]1CC[C@H](C(=O)O)CC1 [Example 60, trans-4-(1-(4-(4-Chloro-2-benzothiazolyl)amino-3-chlorophenylacetyl)-(4S)-fluoro-(2S)-pyrrolidinylmethoxy)cyclohexanecarboxylic acid]",6.3 nM
7,"O=C(Nc1ccc(CC(=O)N2C[C@@H](F)C[C@H]2CO[C@H]2CC[C@H](C(=O)O)CC2)cc1Br)c1c[nH]c2ccccc12 [Example 64, trans-4-(1-((3-Bromo-4-((3-indolylcarbonyl)amino)phenyl)acetyl)-(4S)-fluoro-(2S)-pyrrolidinylmethoxy)cyclohexanecarboxylic acid]",0.31 nM
8,"Cn1cc(C(=O)Nc2ccc(CC(=O)N3C[C@@H](F)C[C@H]3CO[C@H]3CC[C@H](C(=O)O)CC3)nc2Cl)c2ccccc21 [Example 69, trans-4-(1-(2-Chloro-3-((1-methyl-3-indolylcarbonyl)amino)-6-pyridyl)acetyl)-(4S)-fluoro-(2S)-cyclohexanecarboxylic acid]",34 nM
9,"Cn1cc(C(=O)Nc2cc(F)c(CC(=O)N3C[C@@H](F)C[C@H]3CO[C@H]3CC[C@H](C(=O)O)CC3)cc2Cl)c2ccc(F)cc21 [Example 73, trans-4-(1-((5-Chloro-2-fluoro-4-((6-fluoro-1-methyl-3-indolylcarbonyl)amino)phenyl)acetyl)-(4S)-fluoro-(2S)-pyrrolidinylmethoxy)cyclohexanecarboxylic acid]",51 nM
10,"Cn1cc(C(=O)Nc2cc(F)c(CC(=O)N3C[C@@H](F)C[C@H]3CO[C@H]3CC[C@H](C(=O)O)CC3)cc2Cl)c2c(F)cccc21 [Example 75, trans-4-(1-((5-Chloro-2-fluoro-4-((4-fluoro-1-methyl-3-indolylcarbonyl)amino)phenyl)acetyl)-(4S)-fluoro-(2S)-pyrrolidinylmethoxy)cyclohexanecarboxylic acid]",21 nM
11,"COc1cc(CC(=O)N2C[C@@H](F)C[C@H]2CO[C@H]2CC[C@H](C(=O)O)CC2)c(F)cc1NC(=O)c1cn(C)c2ccccc12 [Example 76, trans-4-((4S)-Fluoro-1-(2-fluoro-5-methoxy-4-((1-methyl-1H-3-indolylcarbonyl)amino)phenylacetyl)-(2S)-pyrrolidinylmethoxy)cyclohexanecarboxylic acid]",1.6 nM
12,"COc1cc(CC(=O)N2C[C@@H](F)C[C@H]2CO[C@H]2CC[C@H](C(=O)O)CC2)ccc1NC(=O)c1cc2ccccc2[nH]1 [Example 78, trans-4-(1-((4-((2-Indolylcarbonyl)amino)-3-methoxyphenyl)acetyl)-(4S)-fluoro-(2S)-pyrrolidinylmethoxy)cyclohexanecarboxylic acid]",14 nM
13,"O=C(Nc1ccc(CC(=O)N2C[C@@H](F)C[C@H]2CO[C@H]2CC[C@H](C(=O)O)CC2)cc1Cl)c1nccc2ccccc12 [Example 80, trans-4-(1-((3-Chloro-4-((1-isoquinolinylcarbonyl)amino)phenyl)acetyl)-(4S)-fluoro-(2S)-pyrrolidinylmethoxy)cyclohexanecarboxylic acid]",12 nM
14,"O=C(Nc1cc(F)c(CC(=O)N2C[C@@H](F)C[C@H]2CO[C@H]2CC[C@H](C(=O)O)CC2)cc1Cl)c1nccc2ccccc12 [Example 81, trans-4-(1-((5-Chloro-2-fluoro-4-((1-isoquinolinylcarbonyl)amino)phenyl)acetyl)-(4S)-fluoro-(2S)-pyrrolidinylmethoxy)cyclohexanecarboxylic acid]",25 nM
15,"O=C(Nc1ccc(CC(=O)N2C[C@@H](F)C[C@H]2CO[C@H]2CC[C@H](C(=O)O)CC2)cc1Cl)c1nccc2ccc(F)cc12 [Example 82, trans-4-(1-((3-Chloro-4-((7-fluoro-1-isoquinolinylcarbonyl)amino)phenyl)acetyl)-(4S)-fluoro-(2S)-pyrrolidinylmethoxy)cyclohexanecarboxylic acid]",18 nM
16,"O=C(Nc1cc(F)c(CC(=O)N2C[C@@H](F)C[C@H]2CO[C@H]2CC[C@H](C(=O)O)CC2)cc1Cl)c1nsc2ccccc12 [Example 85, trans-4-(1-(5-Chloro-2-fluoro-(4-((3-benzo(d)isothiazolylcarbonyl)amino)phenyl)acetyl)-(4S)-fluoro-(2S)-pyrrolidinylmethoxy)cyclohexanecarboxylic acid]",6.4 nM
17,"O=C(Cc1ccc2nc(-c3cccc4ccccc34)oc2c1)N1C[C@@H](F)C[C@H]1CO[C@H]1CC[C@H](C(=O)O)CC1 [Example 95, trans-4-(1-(2-(1-Naphthyl)-6-benzoxazolylacetyl)-(4S)-fluoro-(2S)-pyrrolidinylmethoxy)cyclohexanecarboxylic acid]",34 nM
18,"Cn1cc(-c2nc3ccc(CC(=O)N4C[C@@H](F)C[C@H]4CO[C@H]4CC[C@H](C(=O)O)CC4)cc3o2)c2cc(Cl)ccc21 [Example 96, trans-4-(1-((2-(5-Chloro-1-methyl-3-indolyl)-6-benzoxazolyl)acetyl)-(4S)-fluoro-(2S)-pyrrolidinylmethoxy)cyclohexanecarboxylic acid]",20 nM
19,"Cn1cc(-c2nc3ccc(CC(=O)N4C[C@@H](F)C[C@H]4CO[C@H]4CC[C@H](C(=O)O)CC4)cc3o2)c2ccc(F)cc21 [Example 99, trans-4-(1-((2-(6-Fluoro-1-methyl-3-indolyl)-6-benzoxazolyl)acetyl)-(4S)-fluoro-(2S)-pyrrolidinylmethoxy)cyclohexanecarboxylic acid]",17 nM
20,"O=C(Cc1ccc2nc(-c3nccc4ccccc34)oc2c1)N1C[C@@H](F)C[C@H]1CO[C@H]1CC[C@H](C(=O)O)CC1 [Example 102, trans-4-(1-(2-(1-Isoquinolinyl)-6-benzoxazolylacetyl)-(4S)-fluoro-(2S)-pyrrolidinylmethoxy)cyclohexanecarboxylic acid]",47 nM
21,O=C(Cc1ccc2nc(N3CCc4ccccc43)oc2c1)N1C[C@@H](F)C[C@H]1CO[C@H]1CC[C@H](C(=O)O)CC1 [Example 104],20 nM
22,"O=C(Cc1ccc2nc(N3CCc4ccccc43)oc2c1F)N1C[C@@H](F)C[C@H]1CO[C@H]1CC[C@H](C(=O)O)CC1 [Example 105, trans-4-(1-((7-fluoro-2-(1-indolinyl)-6-benzoxazolyl)acetyl)-(4S)-fluoro-(2S)-pyrrolidinylmethoxy)cyclohexanecarboxylic acid]",42 nM
23,"Cn1cc(C(=O)Nc2cc(F)c(CC(=O)N3C[C@@H](F)C[C@H]3CN[C@H]3CC[C@H](C(=O)O)CC3)cc2Cl)c2ccccc21 [Example 107, trans-4-(N-(1-((5-Chloro-2-fluoro-4-((1-methyl-3-indolylcarbonyl)amino)phenyl)acetyl)-(4S)-fluoro-(2S)-pyrrolidinylmethyl)amino)cyclohexanecarboxylic acid]",11 nM
